Patent US20230105599A1, “Aqueous Formulations Containing Povidone Iodine for Effective Treatment and Prevention of Virus Infections” (priority 2020, published 2023)
Where two headings read alike, the source gives them in different places.

Columns and labels:
Assay type in all cases: cell-based
[1] = tested on: Influenza Virus A H1N1, California July 2009; assay: In vitro virucidal assay, endpoint dilution CCID50 on MDCK cells; settings: 95% ethanol control, 37° C.
Description: Formulation B containing 0.6% PVP-I (for nasal spray) was tested for virucidal assay against influenza virus (Influenza Virus A H1N1, California July 2009). Formulation B was diluted with artificial nasal fluid as follows: neat, 1/1.8, 1/3.2 and 1/10. Other controls were 95% ethanol and MEM solution. Virus solution was added to test dilution at 1/10 and incubated for 30 seconds and 2 minutes at 37° C. And thus, the final concentration of solution tested were 90%, 50%, 28% and 9%. Following the incubation period, samples were neutralized by a 1/10 dilution in test media containing 10% FBS. The surviving virus in each tube was determined using a standard endpoint dilution CCID50 assay as follows. Samples were diluted 1/10 in series and each dilution added to 4 replicate columns of 96-well plates seeded with 80-100% confluent MDCK cells. Plates were incubated for 6 days at 37° C. with 5% CO2 then scored for the presence or absence of cytopathic effect (CPE). Virus titer (CCID50) was calculated using the Reed-Muench method (1948). The log reduction value (LRV) of the compound compared to the virus control was calculated. The entire procedure was repeated in triplicate. Toxicity controls were performed to show whether test compound toxicity would confound results by killing the cells in the absence of virus.

SARS-CoV-2 = settings: 45% ethanol control, 37° C.; for Viral Titer: mean of 3 ± SD
Human Adenovirus Type 5 = assay: In-vitro anti-viral (virucidal) assay, cytopathic effect study with human AE549 cells; settings: 70% ethanol
Description: To determine whether contact with aqueous formulation of this invention containing 0.6% PVP-I inactivates (“kills”) virus, the aqueous formulation was mixed directly with virus for 30±5 minutes, then neutralized and the surviving virus was quantified.

Compound: CCO [Ethanol]
- LRV (log reduction value) ([1]; contact time 0.5 min): 1.5
- Viral Titer ([1]; contact time 0.5 min): 4.5 Log10 CCID50 of virus per mL
- LRV (log reduction value) ([1]; contact time 2 min): 4.4
- Viral Titer ([1]; contact time 2 min): 2.3 Log10 CCID50 of virus per mL
- LRV (log reduction value) (SARS-CoV-2; contact time 0.5 min): 3.5
- Viral Titer (SARS-CoV-2; contact time 0.5 min): <1.7 ± 0.0 Log10 CCID50 of virus per mL
- LRV (log reduction value) (SARS-CoV-2; contact time 2 min): 1.9
- Viral Titer (SARS-CoV-2; contact time 2 min): <1.7 ± 0.0 Log10 CCID50 of virus per mL
- LRV (log reduction value) (SARS-CoV-2; contact time 10 min): 3.3
- Viral Titer (SARS-CoV-2; contact time 10 min): <0.67 ± 0.0 Log10 CCID50 of virus per mL
- virucidal effect of ethanol control (Human Adenovirus Type 5): fully effective
